The test system of series [1] is IFNβ. The experiment in a line: IFNβ induction (TaqMan qRT-PCR) in primary human endothelial cells after dsDNA or hCMV. In kind it is cell-based. The conditions noted are these: for IFNβ induction: HUVEC supplemented with the substance, then DNA treatment or hCMV infection. The source says:
(§1) Extracellular Ado supplementation enhances anti-viral innate responses: To date, all loss-of function mutations in ADA2 that cause PAN/DADA2 vasculitis either reduce protein levels of ADA2 or dramatically impair enzymatic activity of ADA2, such that loss of enzymatic activity in serum is the defining characteristic of the disease. Loss of ADA2 activity in serum alters catabolism of Ado/dAdo released into circulation from cells and tissues, or produced by dephosphorylation of extracellular ATP/dATP. Ado and dAdo are profoundly immuno-modulatory nucleosides, exerting many effects on cells. Vascular endothelial cells metabolize Ado/dAdo in blood, yet excessive or dysregulated Ado/dAdo signaling has not been examined in endothelium. To examine the effects of Ado on vascular endothelial cells, HUVEC were supplemented with extracellular Ado 24 h prior to treatment with DNA or infection with hCMV.
Cells: Primary human cells were obtained from Lonza as single donor aliquots. Wherever possible, both male and female donors were analyzed. Human umbilical vascular endothelial cells (HUVEC) and Human aortic endothelial cells (HAEC) were maintained in EGM-2 Bulletkit growth media (Lonza) supplemented with 2% HI-FBS. Human dermal microvascular endothelial cells (HDMVEC), human brain microvascular endothelial cells (HBMVEC), and human kidney microvascular endothelial cells (HKMVEC) were maintained in EBM-2MV Bulletkit growth media (Lonza) supplemented with 5% HI-FBS. Normal human bronchial […] cells (NHBE) were maintained in BEGM Bulletkit growth media (Lonza). U937 were maintained in RPMI supplemented with 5% HI-FBS. For activation of cell-intrinsic innate immune responses through the STING-IFN-I pathway, all cells were stimulated for 3 h with poly dA:dT or VACV70 dsDNA (200-1000 ng/mL) using LyoVec as a transfection reagent (Invivogen), or infected for 3 h with hCMV MOLD at MOI=1.
Real-time PCR: Total RNA was extracted using the Quick-RNA MiniPrep Plus kit (Zymo Research). Total RNA (200-1000 ng) was used to synthesize complementary DNA using the qScript cDNA synthesis kit (Quanta). Samples were diluted 10-fold and gene expression was analyzed by real-time quantitative PCR on a CFX96 Touch Detection System (Bio-Rad) using FastStart SYBR Green Master Mix (Roche) or TaqMan Universal PCR Master Mix (ThermoFisher Scientific). […]
(In general: Real-time PCR tracks product formation cycle by cycle.)

A further series has as its system STING. The experiment in a line: STING mRNA expression (TaqMan qRT-PCR) in HUVEC. In kind it is cell-based, human. The note with it: supplemented cells, resting and stimulated. Here is the method:
(§2) Real-time PCR: Total RNA was extracted using the Quick-RNA MiniPrep Plus kit (Zymo Research). Total RNA (200-1000 ng) was used to synthesize complementary DNA using the qScript cDNA synthesis kit (Quanta). Samples were diluted 10-fold and gene expression was analyzed by real-time quantitative PCR on a CFX96 Touch Detection System (Bio-Rad) using FastStart SYBR Green Master Mix (Roche) or TaqMan Universal PCR Master Mix (ThermoFisher Scientific).

Series [2] relates to IFNβ. The series is described as follows: IFNβ induction (TaqMan qRT-PCR) in primary human endothelial cells after dsDNA or hCMV. Format: cell-based. The conditions noted are these: for hCMV induced IFNβ: pre-treatment, siControl and siADA2-treated endothelial cells (HUVEC, HBMVEC, HDMVEC).
The test system of series [3] is pro-inflammatory and anti-viral genes. The series is described as follows: Pro-inflammatory cytokine and innate immune gene expression in endothelial cells (qRT-PCR, RNAseq). In kind it is cell-based, human. The conditions noted are these: for pro-inflammatory cytokine production: after viral infection, extracellular supplementation; for expression of IL-6 and TNF cytokines: endothelial cells after supplementation. Here is the method:
as §2
RNAseq: Total RNA was extracted from 10^7 cultured cells using the Quick-RNA MiniPrep Plus kit (Zymo Research). RNA quality was assessed using an Agilent Tapestation, such that all samples should produce RIN^e scores above 9.0. For each sample, 500-1000 ng of total RNA was then prepared into an mRNA library using the Truseq Stranded mRNA Library Prep Kit (Illumina). Resulting libraries were then pooled at equimolar concentrations using Quant-iT PicoGreen dsDNA Assay Kit (Life Technologies) and were deep sequenced on an Illumina 2500 in Rapid Run Mode, producing between 10M and 90M single-end reads with lengths of 50 nucleotides per sample.
The single-end reads that passed Illumina filters were filtered for reads aligning to tRNA, rRNA, adapter sequences, and spike-in controls. The reads were then aligned to UCSC hg19 reference genome using TopHat (v 1.4.1). DUST scores were calculated with PRINSEQ Lite (v 0.20.3) and low-complexity reads (DUST>4) were removed from the BAM files. The alignment results were parsed via the SAMtools to generate SAM files. Read counts to each genomic feature were obtained with the htseq-count program (v 0.6.0) using the “union” option. After removing absent features (zero counts in all samples), the raw counts were then imported to R/Bioconductor package DESeq2 [5] to identify differentially expressed genes among samples. DESeq2 normalizes counts by dividing each column of the count table (samples) by the size factor of this column. The size factor is calculated by dividing the samples by geometric means of the genes. This brings the count values to a common scale suitable for comparison. P-values for differential expression are calculated using binomial test for differences between the base means of two conditions. These p-values are then adjusted for multiple test correction using Benjamin Hochberg algorithm to control the false discovery rate. […] Cluster analyses including principal component analysis (PCA) and hierarchical clustering were performed using standard algorithms and metrics. Hierarchical clustering was performed using complete linkage with Euclidean metric.

The test system of the next series is IRF3. The experiment in a line: IRF3 nuclear translocation (in situ immunofluorescence) in primary human endothelial cells after dsDNA or hCMV. In kind it is cell-based. The note with it: primary human endothelial cells (HUVEC) supplemented with the substance, then DNA treatment or hCMV infection.
From the text: as §1
Cells: Primary human cells were obtained from Lonza as single donor aliquots. Wherever possible, both male and female donors were analyzed. Human umbilical vascular endothelial cells (HUVEC) and Human aortic endothelial cells (HAEC) were maintained in EGM-2 Bulletkit growth media (Lonza) supplemented with 2% HI-FBS. […]
IRF3 immunostaining: Cells were fixed with 4% PFA for 20 min, washed 3 times with 1×PBS, permeabilized with 0.2% Triton X-100 for 10 min, and blocked with 10% FBS for 30 min Cells were incubated with IRF-3 primary antibody (clone FL-425, Santa Cruz) at 1:200 dilution for 30 min and washed 3 times with 1×PBS. […] Images were acquired at 10× magnification on ImageXpress Micro (Molecular Devices), and images were analyzed using the enhanced translocation module of MetaXpress (Molecular Devices). Individual cells were scored as positive for nuclear translocation if >70% of IRF3 fluorescence was spatially correlated with DAPI fluorescence. […]

A further series has as its system vascular endothelium. The note with it: references 22-24; cited from earlier work.
Series [4] concerns IFNβ. The series is described as follows: IFNβ induction in monocytes. Format: cell-based, human. Here is the method:
as §2
Lentivirus production for shRNA and CRISPR: For shRNA experiments, sequences were selected from the Sigma mission 2.0 library. For CRISPR experiments, sgRNA sequences selected using the CHOPCHOP algorithm and were cloned into the lentiCRISPrv2 vector […]. Plasmids were transformed and amplified in Dh5α competent E. Coli, and purified using the EndoFree Plasmid Maxi kit (QIAGEN). For lentivirus preparation, 293T cells seeded in 6-well plates and transfected with pLKO.1 or lentiCRIPRv2 plasmids and MISSION Lentiviral Packaging Mix (Sigma), using JetPrime transfection reagent (Polyplus). After 24 h, media was changed to full growth media supplemented with 30% FBS. After 48 h, lentiviral supernatants were collected and HUVEC or U937 cells were spin-infected by centrifugation for 1 h at 37 C at 2000 rpm. Cells were selected in 3 ug/mL puromycin media for 2 weeks.

This is an account of results in patent US20190282580A1, “PRO-INFLAMMATORY ROLE FOR ADENOSINE UPTAKE AND METABOLISM” (priority 2016, published 2019).

“Also recorded” adds a separate entry of the source.

Consider `OC[C@H]1O[C@@H](n2cnc3c(O)ncnc32)C[C@@H]1O` [dIno, deoxyinosine], for which the “IFNβ mRNA induction” value with IFNβ [1] (prolonged supplementation of HUVEC, dsDNA treatment) was “specifically augmented”. Further, the “STING mRNA levels / expression” value in the series on STING is given as “up-regulated”.

Take `OC[C@H]1O[C@@H](n2cnc3c2NC=NC[C@H]3O)C[C@@H]1O` [pentostatin]: the “augmentation of IRF3 and IFNβ responses by extracellular Ado and dAdo” value in the series with IFNβ [2] (in the presence of pentostatin to inhibit ADA2, endothelial cells) is reported as “enhanced”.

With `OCCN(CCO)c1nc(N2CCCCC2)c2nc(N(CCO)CCO)nc(N3CCCCC3)c2n1` [dipyridamole], the “expression of pro-inflammatory and anti-viral genes” value in series [3] (ADA2-depleted and dAdo-supplemented cells, whole-transcriptome RNAseq) is given as “broadly inhibited”. The cytokine production result in series [3] (ADA2/CECR1-depleted cells) was “reduces”. For the same molecule, the IFNβ levels entry in the series with IFNβ [2] (TREX1-depleted cells) is “dampened”. Besides, the “dIno-augmented IFNβ” value in the series on IFNβ [2] (cells supplemented with dIno, sensitivity to DPM) is reported as “sensitive”. For the same molecule, the “hCMV induced IFNβ” value with IFNβ [2] is on record as “significantly reduced; also recorded: dose-dependent decrease”; in the series with IFNβ [2] (listed as Dipyridamole), “reduced”.

Consider `CCNC(=O)[C@H]1O[C@@H](n2cnc3c(N)ncnc32)[C@H](O)[C@@H]1O` [NECA, 5′-N-ethylcarboxamidoadenosine], for which, in the series with IRF3, the “IRF3 activation / nuclear translocation” value is “did not enhance; also recorded: no effect; also recorded: does not significantly affect”. Further, the IFNβ induction result in the series with IFNβ [1] is “did not enhance; also recorded: does not significantly affect”.

In the case of `Nc1ncnc2c1ncn2[C@@H]1O[C@H](CO)[C@@H](O)[C@H]1O` [Ado, adenosine], the “IRF3 activation / nuclear translocation” value with IRF3 is reported as “significantly enhanced; also recorded: augmented; also recorded: enhances”. In addition, the IFNβ induction entry with IFNβ [1] is on record as “significantly enhanced; also recorded: augmented; also recorded: enhances”; with IFNβ [1] (listed as adenosine), “enhances”. Also, the pro-inflammatory cytokine production entry in series [3] was “enhances”. The “expression of IL-6 and TNF cytokines” value in series [3] is listed as “enhanced expression”; in series [3] (listed as adenosine), “enhances”. The “uptake of circulating nucleoside by the vascular endothelium” value in the series with vascular endothelium is “within a few seconds”.

With `Nc1ncnc2c1ncn2[C@H]1C[C@H](O)[C@@H](CO)O1` [dAdo, 2′-deoxyadenosine], the “IRF3 activation / nuclear translocation” value in the series with IRF3 is “significantly enhances; also recorded: augmented”. Further, the IFNβ induction result is given as “significantly enhances; also recorded: augmented” in the series on IFNβ [1] and “enhanced” with IFNβ [4]. Also, the pro-inflammatory cytokine production result in series [3] is “enhances”. Moreover, in the series on STING, the “STING mRNA levels / expression” value was “up-regulated”. The “uptake of circulating nucleoside by the vascular endothelium” value in the series on vascular endothelium was “within a few seconds”.
